What was measured:
BTK = target: T1, BTK (Homo sapiens, UniProt Q06187); experiment: BTK kinase assay (HotSpot, 33P ATP); assay type: biochemical; conditions: for BTK @ 0.1 μM (% Inh): 0.1 μM compound; for BTK @ 0.1 μM (% Inh) / BTK @ 1 μM (% Inh) / BTK @ 0.01 μM (% Inh): 10 μM ATP; for BTK @ 1 μM (% Inh): 1 μM compound; for IC50: 10 dose IC50, 10 μM ATP; for BTK @ 0.01 μM (% Inh): 0.01 μM compound
T1 construct: purchased Reaction Biology Corporation
Outline: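 In 20 mM Hepes (pH 7.5) with 10 mM MgCl2, 1 mM EGTA, 0.1 mM Na3VO4, 2 mM DTT, 0.02% Brij35, 0.02 mg/mL BSA and 1% DMSO, kinase and substrate were exposed to ten compound doses for 15–20 min.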

PI3Kδ = target: T2, PI3Kδ (Homo sapiens, UniProt O00329); experiment: PI3Kδ kinase assay (HTRF, PIP3 detection); assay type: biochemical; conditions: for PI3Kδ @ 0.1 μM (% Inh): 0.1 μM compound; for PI3Kδ @ 0.1 μM (% Inh) / PI3Kδ @ 1 μM (% Inh) / PI3Kδ @ 0.01 μM (% Inh): 10 μM ATP; for PI3Kδ @ 1 μM (% Inh): 1 μM compound; for IC50: 10 dose IC50, 10 μM ATP; for PI3Kδ @ 0.01 μM (% Inh): 0.01 μM compound
T2 construct: purchased Reaction Biology Corporation
Outline: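 10-dose HTRF assay; kinase preincubated with compound 10 min at RT, then reacted with 10 μM PIP2 and 10 μM ATP for 30 min at 30 °C in HEPES pH 7.0 buffer. PIP3 product displaces biotin-PIP3 from the Eu/APC complex; signal converted to PIP3 via standard curve, IC50 by nonlinear regression.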

T1 sequence (Q06187 whole entry): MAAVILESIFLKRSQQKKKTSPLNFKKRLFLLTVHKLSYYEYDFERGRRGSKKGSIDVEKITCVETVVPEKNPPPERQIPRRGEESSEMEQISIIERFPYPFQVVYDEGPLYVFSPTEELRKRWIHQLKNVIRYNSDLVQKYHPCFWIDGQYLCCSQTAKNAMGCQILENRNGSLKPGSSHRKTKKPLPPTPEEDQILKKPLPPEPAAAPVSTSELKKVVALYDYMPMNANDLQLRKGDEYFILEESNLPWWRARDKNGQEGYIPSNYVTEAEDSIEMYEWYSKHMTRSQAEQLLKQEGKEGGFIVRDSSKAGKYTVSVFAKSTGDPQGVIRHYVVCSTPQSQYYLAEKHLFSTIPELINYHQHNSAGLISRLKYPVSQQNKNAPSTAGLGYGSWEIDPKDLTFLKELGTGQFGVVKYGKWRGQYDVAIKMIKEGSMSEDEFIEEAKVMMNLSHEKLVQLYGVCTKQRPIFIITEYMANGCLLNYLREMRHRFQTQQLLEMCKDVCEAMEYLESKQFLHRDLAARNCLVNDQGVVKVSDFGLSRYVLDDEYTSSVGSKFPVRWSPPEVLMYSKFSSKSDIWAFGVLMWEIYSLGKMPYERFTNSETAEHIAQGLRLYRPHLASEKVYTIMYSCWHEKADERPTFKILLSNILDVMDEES
T2 sequence (O00329 whole entry): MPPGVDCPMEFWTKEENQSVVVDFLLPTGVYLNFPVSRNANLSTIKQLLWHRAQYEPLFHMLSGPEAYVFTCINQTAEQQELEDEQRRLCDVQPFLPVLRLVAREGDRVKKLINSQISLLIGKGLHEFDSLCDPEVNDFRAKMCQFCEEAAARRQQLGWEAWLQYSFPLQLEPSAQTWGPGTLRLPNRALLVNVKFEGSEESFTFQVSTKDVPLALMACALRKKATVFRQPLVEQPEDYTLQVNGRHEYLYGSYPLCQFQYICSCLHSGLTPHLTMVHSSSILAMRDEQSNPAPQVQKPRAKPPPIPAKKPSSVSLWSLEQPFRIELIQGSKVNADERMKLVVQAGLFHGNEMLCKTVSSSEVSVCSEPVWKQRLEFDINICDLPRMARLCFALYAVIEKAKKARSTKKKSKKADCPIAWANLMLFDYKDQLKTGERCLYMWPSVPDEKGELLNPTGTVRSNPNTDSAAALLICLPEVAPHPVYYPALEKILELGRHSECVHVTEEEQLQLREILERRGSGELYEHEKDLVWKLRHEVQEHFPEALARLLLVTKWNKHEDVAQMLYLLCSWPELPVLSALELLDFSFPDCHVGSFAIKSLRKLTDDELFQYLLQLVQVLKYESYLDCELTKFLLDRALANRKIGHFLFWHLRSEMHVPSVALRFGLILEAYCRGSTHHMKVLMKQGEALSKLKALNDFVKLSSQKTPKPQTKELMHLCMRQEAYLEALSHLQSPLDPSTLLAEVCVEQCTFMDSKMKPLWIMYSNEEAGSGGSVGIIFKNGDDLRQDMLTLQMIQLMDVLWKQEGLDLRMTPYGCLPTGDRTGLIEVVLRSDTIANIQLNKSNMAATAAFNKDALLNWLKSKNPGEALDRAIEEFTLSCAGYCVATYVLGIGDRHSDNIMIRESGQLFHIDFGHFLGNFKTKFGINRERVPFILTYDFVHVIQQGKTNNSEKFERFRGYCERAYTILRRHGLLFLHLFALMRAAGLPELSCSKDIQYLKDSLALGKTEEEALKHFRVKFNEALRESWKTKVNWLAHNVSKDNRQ
T2 sequence (P27986 whole entry partner): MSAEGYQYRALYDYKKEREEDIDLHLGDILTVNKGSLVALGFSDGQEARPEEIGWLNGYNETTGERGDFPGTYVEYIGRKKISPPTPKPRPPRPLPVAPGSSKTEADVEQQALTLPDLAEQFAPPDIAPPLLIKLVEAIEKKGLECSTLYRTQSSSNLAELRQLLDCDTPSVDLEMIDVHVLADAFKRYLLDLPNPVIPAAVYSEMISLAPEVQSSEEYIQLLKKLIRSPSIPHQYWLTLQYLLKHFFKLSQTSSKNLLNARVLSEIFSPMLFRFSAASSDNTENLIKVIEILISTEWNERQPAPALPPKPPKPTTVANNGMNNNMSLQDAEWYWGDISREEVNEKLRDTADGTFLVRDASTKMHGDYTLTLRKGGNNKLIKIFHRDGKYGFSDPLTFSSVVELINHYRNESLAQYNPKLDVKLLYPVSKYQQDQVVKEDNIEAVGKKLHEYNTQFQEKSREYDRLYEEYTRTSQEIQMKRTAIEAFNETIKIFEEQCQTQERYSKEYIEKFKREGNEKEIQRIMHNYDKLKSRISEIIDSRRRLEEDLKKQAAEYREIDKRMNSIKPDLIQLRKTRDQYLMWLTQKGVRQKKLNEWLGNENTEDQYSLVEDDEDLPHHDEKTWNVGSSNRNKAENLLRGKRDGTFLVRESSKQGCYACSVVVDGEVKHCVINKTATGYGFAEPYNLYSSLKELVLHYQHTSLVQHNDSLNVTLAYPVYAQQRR

## Cc1nc2ccc(-c3nn(C4Cc5ccccc5C4)c4ncnc(N)c34)cc2[nH]1 [Compound No. 82, 1-(2,3-dihydro-1H-inden-2-yl)-3-(2-methyl-1H-1,3-benzodiazol-6-yl)-1H-pyrazolo[3,4-d]pyrimidin-4-amine]
BTK
  BTK @ 0.1 μM (% Inh): 11.64 % Inh
  BTK @ 1 μM (% Inh): 30.18 % Inh
PI3Kδ
  PI3Kδ @ 0.1 μM (% Inh): 41.76 % Inh
  PI3Kδ @ 1 μM (% Inh): 82.95 % Inh

## COc1ccc(-c2nn(C3CCc4ccccc4C3)c3ncnc(N)c23)cc1F (single isomer, unassigned) [Compound No. 14a, 3-(3-fluoro-4-methoxyphenyl)-1-(1,2,3,4-tetrahydronaphthalen-2-yl)-1H-pyrazolo[3,4-d]pyrimidin-4-amine]
BTK
  IC50: 784 nM
PI3Kδ
  IC50: 102 nM

## CCOc1ccc(-c2nn(C3Cc4ccccc4C3)c3ncnc(N)c23)cc1OC [Compound No. 71, 1-(2,3-dihydro-1H-inden-2-yl)-3-(4-ethoxy-3-methoxyphenyl)-1H-pyrazolo[3,4-d]pyrimidin-4-amine]
BTK
  BTK @ 0.1 μM (% Inh): 24.51 % Inh
  BTK @ 1 μM (% Inh): 71.58 % Inh
  IC50: 392 nM
PI3Kδ
  PI3Kδ @ 0.1 μM (% Inh): 47.56 % Inh
  PI3Kδ @ 1 μM (% Inh): 89.24 % Inh
  IC50: 63.9 nM

## Nc1ncnc2c1c(-c1ccc(F)cc1)nn2C1CCc2ccccc2C1 (racemic) [compound 13, 3-(4-fluorophenyl)-1-(1,2,3,4-tetrahydronaphthalen-2-yl)-1H-pyrazolo[3,4-d]pyrimidin-4-amine]
BTK
  IC50: 69.8 nM
PI3Kδ
  IC50: 2390 nM

## COc1cncc(-c2nn(C3Cc4ccccc4C3)c3ncnc(N)c23)c1 [Compound No. 61, 1-(2,3-dihydro-1H-inden-2-yl)-3-(5-methoxypyridin-3-yl)-1H-pyrazolo[3,4-d]pyrimidin-4-amine]
BTK
  BTK @ 0.1 μM (% Inh): 16.63 % Inh
  BTK @ 1 μM (% Inh): 45.41 % Inh
PI3Kδ
  PI3Kδ @ 0.1 μM (% Inh): 32.36 % Inh
  PI3Kδ @ 1 μM (% Inh): 71.04 % Inh

## Nc1ncnc2c1c(-c1ccc3c(c1)OCCCO3)nn2C1Cc2ccccc2C1 [Compound No. 74, 1-(2,3-dihydro-1H-inden-2-yl)-3-(3,4-dihydro-2H-1,5-benzodioxepin-7-yl)-1H-pyrazolo[3,4-d]pyrimidin-4-amine]
BTK
  BTK @ 0.1 μM (% Inh): 10.82 % Inh
  BTK @ 1 μM (% Inh): 33.05 % Inh
PI3Kδ
  PI3Kδ @ 0.1 μM (% Inh): 10.99 % Inh
  PI3Kδ @ 1 μM (% Inh): 65.15 % Inh

## CC(=O)Nc1cccc(-c2nn(C3Cc4ccccc4C3)c3ncnc(N)c23)c1 [Compound No. 59, N-{3-[4-amino-1-(2,3-dihydro-1H-inden-2-yl)-1H-pyrazolo[3,4-d]pyrimidin-3-yl]phenyl}acetamide]
BTK
  BTK @ 0.1 μM (% Inh): 14.08 % Inh
  BTK @ 1 μM (% Inh): 19.76 % Inh
PI3Kδ
  PI3Kδ @ 0.1 μM (% Inh): 17.93 % Inh
  PI3Kδ @ 1 μM (% Inh): 5.79 % Inh

## COc1c(Cl)ccc(-c2nn(C3Cc4ccccc4C3)c3ncnc(N)c23)c1Cl [Compound No. 95, 3-(2,4-dichloro-3-methoxyphenyl)-1-(2,3-dihydro-1H-inden-2-yl)-1H-pyrazolo[3,4-d]pyrimidin-4-amine]
BTK
  BTK @ 0.01 μM (% Inh): 7 % Inh
  BTK @ 0.1 μM (% Inh): 11.01 % Inh
PI3Kδ
  PI3Kδ @ 0.01 μM (% Inh): 3.09 % Inh
  PI3Kδ @ 0.1 μM (% Inh): 25.54 % Inh

## Nc1ncnc2c1c(-c1cccc(F)c1)nn2C1Cc2ccccc2C1 [Compound No. 88, 1-(2,3-dihydro-1H-inden-2-yl)-3-(3-fluorophenyl)-1H-pyrazolo[3,4-d]pyrimidin-4-amine]
BTK
  BTK @ 0.01 μM (% Inh): 7.67 % Inh
  BTK @ 0.1 μM (% Inh): 17.55 % Inh
PI3Kδ
  PI3Kδ @ 0.01 μM (% Inh): 18.98 % Inh
  PI3Kδ @ 0.1 μM (% Inh): 15.89 % Inh

## N#Cc1cc(-c2nn(C3Cc4ccccc4C3)c3ncnc(N)c23)ccc1F [Compound No. 97, 5-[4-amino-1-(2,3-dihydro-1H-inden-2-yl)-1H-pyrazolo[3,4-d]pyrimidin-3-yl]-2-fluorobenzonitrile]
BTK
  BTK @ 0.01 μM (% Inh): 11.7 % Inh
  BTK @ 0.1 μM (% Inh): 14.06 % Inh
PI3Kδ
  PI3Kδ @ 0.01 μM (% Inh): 24.66 % Inh
  PI3Kδ @ 0.1 μM (% Inh): 29.59 % Inh

## Nc1ncnc2c1c(-c1cc(O)cc(F)c1)nn2C1CCCc2ccccc21 (stereo not drawn) [compound 11, 3-(4-amino-1-tetralin-1-yl-pyrazolo[3,4-d]pyrimidin-3-yl)-5-fluoro-phenol]
BTK
  BTK @ 0.1 μM (% Inh): 22.06 % Inh
PI3Kδ
  PI3Kδ @ 0.1 μM (% Inh): 45.08 % Inh

## Nc1ncnc2c1c(-c1ccc(O)cc1)nn2C1CCc2ccccc2C1 (racemic) [compound 21, 4-(4-amino-1-(1,2,3,4-tetrahydronaphthalen-2-yl)-1H-pyrazolo[3,4-d]pyrimidin-3-yl)phenol]
BTK
  IC50: 192 nM
PI3Kδ
  IC50: 104 nM

## COc1cc(-c2nn(C3Cc4ccccc4C3)c3ncnc(N)c23)ccn1 [Compound No. 50, 1-(2,3-dihydro-1H-inden-2-yl)-3-(2-methoxypyridin-4-yl)-1H-pyrazolo[3,4-d]pyrimidin-4-amine]
BTK
  BTK @ 0.1 μM (% Inh): 21.32 % Inh
  BTK @ 1 μM (% Inh): 66.77 % Inh
  IC50: 1260 nM
PI3Kδ
  PI3Kδ @ 0.1 μM (% Inh): 39.05 % Inh
  PI3Kδ @ 1 μM (% Inh): 79.98 % Inh
  IC50: 362 nM

## COc1ccc(-c2nn(C3Cc4ccccc4C3)c3ncnc(N)c23)c(OC)c1OC [Compound No. 83, 1-(2,3-dihydro-1H-inden-2-yl)-3-(2,3,4-trimethoxyphenyl)-1H-pyrazolo[3,4-d]pyrimidin-4-amine]
BTK
  BTK @ 0.1 μM (% Inh): 10.79 % Inh
  BTK @ 1 μM (% Inh): 18.4 % Inh
PI3Kδ
  PI3Kδ @ 0.1 μM (% Inh): −5.17 % Inh
  PI3Kδ @ 1 μM (% Inh): 13.54 % Inh

## Nc1ncnc2c1c(-c1cnc3[nH]ccc3c1)nn2C1CCc2ccccc2C1 (racemic) [compound 16, 3-(1H-pyrrolo[2,3-b]pyridin-5-yl)-1-(1,2,3,4-tetrahydronaphthalen-2-yl)-1H-pyrazolo[3,4-d]pyrimidin-4-amine]
BTK
  BTK @ 0.1 μM (% Inh): 24.0 % Inh
PI3Kδ
  PI3Kδ @ 0.1 μM (% Inh): 51.94 % Inh

## Nc1ncnc2c1c(-c1cccc(CO)c1)nn2C1Cc2ccccc2C1 [Compound No. 54, {3-[4-amino-1-(2,3-dihydro-1H-inden-2-yl)-1H-pyrazolo[3,4-d]pyrimidin-3-yl]phenyl}methanol]
BTK
  BTK @ 0.1 μM (% Inh): 27.64 % Inh
  BTK @ 1 μM (% Inh): 72.19 % Inh
  IC50: 840 nM
PI3Kδ
  PI3Kδ @ 0.1 μM (% Inh): 22.41 % Inh
  PI3Kδ @ 1 μM (% Inh): 72.03 % Inh
  IC50: 924 nM

— US20210317140A1, “Heterocyclic Compounds and Methods of Use” (MEDIVATION TECHNOLOGIES, INC, priority 2013, published 2021)
